Target: T1, hM5 receptor (Homo sapiens, UniProt P08912)
T1 construct: expressed in transfected cells; host or cells: CHO cells (Levey et al., 1991)
T1 sequence (P08912 1-532): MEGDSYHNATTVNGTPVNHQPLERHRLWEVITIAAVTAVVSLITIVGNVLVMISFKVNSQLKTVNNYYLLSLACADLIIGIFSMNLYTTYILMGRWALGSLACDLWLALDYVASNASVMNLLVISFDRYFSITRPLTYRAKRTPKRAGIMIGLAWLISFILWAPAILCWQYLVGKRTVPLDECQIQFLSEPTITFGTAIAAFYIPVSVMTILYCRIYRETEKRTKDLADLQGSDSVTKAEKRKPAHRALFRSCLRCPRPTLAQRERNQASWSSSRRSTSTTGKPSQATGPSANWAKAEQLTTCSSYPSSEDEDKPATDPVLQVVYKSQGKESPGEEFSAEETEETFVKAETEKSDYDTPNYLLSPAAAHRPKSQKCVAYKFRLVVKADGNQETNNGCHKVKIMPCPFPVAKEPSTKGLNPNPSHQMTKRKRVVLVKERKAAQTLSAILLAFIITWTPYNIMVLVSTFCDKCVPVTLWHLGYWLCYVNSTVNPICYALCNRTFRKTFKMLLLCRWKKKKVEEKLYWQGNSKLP
Test: Calcium mobilization assay, CHO cells stably expressing hM5
Format: cell-based
Excerpt: Chinese hamster ovary (CHO-K1) cells stably expressing rat (r)M1 were purchased from the American Type Culture Collection and cultured according to their indicated protocol. CHO cells stably expressing human (h)M2, hM3, and hM5 were described previously (Levey et al., 1991); hM1 and hM4 cDNAs were purchased from Missouri S&T cDNA Resource; rM4 cDNA was provided by T. I. Bonner (National Institutes of Health, Bethesda, Md.). hM1, hM4, and rM4 cDNAs were used to stably transfect CHO-K1 cells purchased from the American Type Culture Collection using Lipofectamine2000. […]
For low throughput measurement of agonist-evoked increases in intracellular calcium, CHO-K1 cells stably expressing muscarinic receptors were plated in 100 μL of growth medium at 5×10^4 (rM1, hM3, and hM5) or 6×10^4 cells per well (rM1 Y381A, hM2, and rM4) in Costar 96-well black-walled, tissue culture (TC)-treated, clear-bottom plates (Fisher). […] For calcium fluorescence measurements, CRCs of compounds (50 μl, 2×) were added 19 s after the beginning of data collection via a Flexstation II (Molecular Devices, Sunnyvale, Calif.). Fluorescence imaging continued for a total of 130 s acquisition time using an excitation wavelength of 488 nm, an emission wavelength of 525 nm, and a cutoff wavelength of 515 nm. […]

Structure (SMILES) | EC50
CCOC(=O)N1[C@@H]2CC[C@H]1C[C@H](NCCNC(=O)c1ccccc1)C2 [Example 26, ethyl 3-((3-exo)-(2-benzamidoethyl)amino)-8-azabicyclo[3.2.1]octane-8-carboxylate] | > 10 µM
CCOC(=O)N1[C@@H]2CC[C@H]1C[C@@H](NCCNC(=O)c1ccccc1)C2 [Example 27, ethyl 3-((3-endo)-(2-benzamidoethyl)amino)-8-azabicyclo[3.2.1]octane-8-carboxylate] | ~10 µM

Source: patent US8697691B2, “Alkyl 3-((2-amidoethyl)amino)-8-azabicyclo[3.2.1]octane-8-carboxylate analogs as selective M1 agonists and methods of making and using same” (Vanderbilt University, priority 2009, dated 2014)
